#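 Step 1: Grow cells in 96-well plates. Step 2: Expose to compound for 48 hours at 5 concentrations. Step 3: Interpolate endpoints linearly; if unreached, use highest concentration. Here, GI50 denotes the concentration required for 50% inhibition of growth. TGI denotes the concentration required for complete inhibition of growth.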
# What was measured:
# Assay in all cases: NCI tumour cell line growth inhibition, 48 h
# 786-0 renal = test system: 786-0 renal
# A498 renal = test system: A498 renal
# A549 NSCLC = test system: A549 NSCLC
# ACHN renal = test system: ACHN renal
# BT-549 breast = test system: BT-549 breast
# CAKI-1 renal = test system: CAKI-1 renal
# CCRF-CEM leukemia = test system: CCRF-CEM leukemia
# COLO 205 colon = test system: COLO 205 colon
# DU-145 prostate = test system: DU-145 prostate
# EKVX NSCLC = test system: EKVX NSCLC
# HCC-2998 colon = test system: HCC-2998 colon
# HCT-116 colon = test system: HCT-116 colon
# HCT-15 colon = test system: HCT-15 colon
# HL-60(TB) leukemia = test system: HL-60(TB) leukemia
# HOP-62 NSCLC = test system: HOP-62 NSCLC
# HOP-92 NSCLC = test system: HOP-92 NSCLC
# HS 578T breast = test system: HS 578T breast
# HT29 colon = test system: HT29 colon
# IGROV1 ovarian = test system: IGROV1 ovarian
# K-562 leukemia = test system: K-562 leukemia
# KM12 colon = test system: KM12 colon
# LOX IMVI melanoma = test system: LOX IMVI melanoma
# M14 melanoma = test system: M14 melanoma
# MALME-3M melanoma = test system: MALME-3M melanoma
# MCF7 breast = test system: MCF7 breast
# MDA-MB-231 breast = test system: MDA-MB-231 breast
# MDA-MB-435 = test system: MDA-MB-435
# MOLT-4 leukemia = test system: MOLT-4 leukemia
# NCI-H226 lung = test system: NCI-H226 lung
# NCI-H23 lung = test system: NCI-H23 lung
# NCI-H460 lung = test system: NCI-H460 lung
# NCI-H522 lung = test system: NCI-H522 lung
# NCI/ADR-RES ovarian = test system: NCI/ADR-RES ovarian
# OVCAR-3 ovarian = test system: OVCAR-3 ovarian
# OVCAR-4 ovarian = test system: OVCAR-4 ovarian
# OVCAR-5 ovarian = test system: OVCAR-5 ovarian
# OVCAR-8 ovarian = test system: OVCAR-8 ovarian
# PC-3 prostate = test system: PC-3 prostate
# RPMI-8226 leukemia = test system: RPMI-8226 leukemia
# RXF 393 renal = test system: RXF 393 renal
# SF-268 CNS = test system: SF-268 CNS
# SF-295 CNS = test system: SF-295 CNS
# SF-539 CNS = test system: SF-539 CNS
# SK-MEL-2 melanoma = test system: SK-MEL-2 melanoma
# SK-MEL-28 melanoma = test system: SK-MEL-28 melanoma
# SK-MEL-5 melanoma = test system: SK-MEL-5 melanoma
# SK-OV-3 ovarian = test system: SK-OV-3 ovarian
# SN12C renal = test system: SN12C renal
# SNB-19 CNS = test system: SNB-19 CNS
# SNB-75 CNS = test system: SNB-75 CNS
# SR leukemia = test system: SR leukemia
# SW-620 colon = test system: SW-620 colon
# T-47D breast = test system: T-47D breast
# TK-10 renal = test system: TK-10 renal
# U251 CNS = test system: U251 CNS
# UACC-257 melanoma = test system: UACC-257 melanoma
# UACC-62 melanoma = test system: UACC-62 melanoma
# UO-31 renal = test system: UO-31 renal
smiles,measurement,setting,value
CCCS(=O)(=O)Nc1ccc(F)c(C(=O)c2c[nH]c3ncc(Cl)cc23)c1F,GI50,786-0 renal,10.7 µM
same,TGI,786-0 renal,74.9 µM
same,GI50,A498 renal,5.14 µM
same,TGI,A498 renal,24 µM
same,GI50,A549 NSCLC,9.87 µM
same,TGI,A549 NSCLC,56.5 µM
same,GI50,ACHN renal,3.78 µM
same,TGI,ACHN renal,66.4 µM
same,GI50,BT-549 breast,13.3 µM
same,TGI,BT-549 breast,57.9 µM
same,GI50,CAKI-1 renal,3.65 µM
same,TGI,CAKI-1 renal,56.9 µM
same,GI50,CCRF-CEM leukemia,16.6 µM
same,TGI,CCRF-CEM leukemia,99.1 µM
same,GI50,COLO 205 colon,0.116 µM
same,TGI,COLO 205 colon,17.3 µM
same,GI50,DU-145 prostate,7.55 µM
same,TGI,DU-145 prostate,80.6 µM
same,GI50,EKVX NSCLC,18.3 µM
same,TGI,EKVX NSCLC,80.9 µM
same,GI50,HCC-2998 colon,17.7 µM
same,TGI,HCC-2998 colon,72.4 µM
same,GI50,HCT-116 colon,6.21 µM
same,TGI,HCT-116 colon,62.7 µM
same,GI50,HCT-15 colon,6.62 µM
same,TGI,HCT-15 colon,> 97.3 µM
same,GI50,HL-60(TB) leukemia,20 µM
same,TGI,HL-60(TB) leukemia,57.4 µM
same,GI50,HOP-62 NSCLC,10.2 µM
same,TGI,HOP-62 NSCLC,65.8 µM
same,GI50,HOP-92 NSCLC,3.2 µM
same,TGI,HOP-92 NSCLC,15.4 µM
same,GI50,HS 578T breast,3.9 µM
same,TGI,HS 578T breast,26.7 µM
same,GI50,HT29 colon,0.2 µM
same,TGI,HT29 colon,21.8 µM
same,GI50,IGROV1 ovarian,5 µM
same,TGI,IGROV1 ovarian,75.4 µM
same,GI50,K-562 leukemia,9.87 µM
same,TGI,K-562 leukemia,> 81.5 µM
same,GI50,KM12 colon,11.4 µM
same,TGI,KM12 colon,> 79.8 µM
same,GI50,LOX IMVI melanoma,2.05 µM
same,TGI,LOX IMVI melanoma,31.1 µM
same,GI50,M14 melanoma,0.109 µM
same,TGI,M14 melanoma,5.18 µM
same,GI50,MALME-3M melanoma,0.0281 µM
same,TGI,MALME-3M melanoma,0.174 µM
same,GI50,MCF7 breast,20.2 µM
same,TGI,MCF7 breast,69.9 µM
same,GI50,MDA-MB-231 breast,9.09 µM
same,TGI,MDA-MB-231 breast,33.7 µM
same,GI50,MDA-MB-435,0.337 µM
same,TGI,MDA-MB-435,29.6 µM
same,GI50,MOLT-4 leukemia,14.7 µM
same,TGI,MOLT-4 leukemia,> 83 µM
same,GI50,NCI-H226 lung,16.2 µM
same,TGI,NCI-H226 lung,78.1 µM
same,GI50,NCI-H23 lung,20.7 µM
same,TGI,NCI-H23 lung,> 91.6 µM
same,GI50,NCI-H460 lung,5.92 µM
same,TGI,NCI-H460 lung,50.3 µM
same,GI50,NCI-H522 lung,8.34 µM
same,TGI,NCI-H522 lung,31.5 µM
same,GI50,NCI/ADR-RES ovarian,14.8 µM
same,TGI,NCI/ADR-RES ovarian,> 90.3 µM
same,GI50,OVCAR-3 ovarian,15.4 µM
same,TGI,OVCAR-3 ovarian,58.7 µM
same,GI50,OVCAR-4 ovarian,9.74 µM
same,TGI,OVCAR-4 ovarian,75.7 µM
same,GI50,OVCAR-5 ovarian,23.3 µM
same,TGI,OVCAR-5 ovarian,> 92.8 µM
same,GI50,OVCAR-8 ovarian,8.81 µM
same,TGI,OVCAR-8 ovarian,61.8 µM
same,GI50,PC-3 prostate,10.6 µM
same,TGI,PC-3 prostate,77.6 µM
same,GI50,RPMI-8226 leukemia,25.2 µM
same,TGI,RPMI-8226 leukemia,> 100 µM
same,GI50,RXF 393 renal,5.23 µM
same,TGI,RXF 393 renal,22.4 µM
same,GI50,SF-268 CNS,13.5 µM
same,TGI,SF-268 CNS,73 µM
same,GI50,SF-295 CNS,5.35 µM
same,TGI,SF-295 CNS,45.6 µM
same,GI50,SF-539 CNS,9.1 µM
same,TGI,SF-539 CNS,57.4 µM
same,GI50,SK-MEL-2 melanoma,4.37 µM
same,TGI,SK-MEL-2 melanoma,16.4 µM
same,GI50,SK-MEL-28 melanoma,0.109 µM
same,TGI,SK-MEL-28 melanoma,9.62 µM
same,GI50,SK-MEL-5 melanoma,1.24 µM
same,TGI,SK-MEL-5 melanoma,19 µM
same,GI50,SK-OV-3 ovarian,3.76 µM
same,TGI,SK-OV-3 ovarian,36.5 µM
same,GI50,SN12C renal,7.66 µM
same,TGI,SN12C renal,84.9 µM
same,GI50,SNB-19 CNS,29.7 µM
same,TGI,SNB-19 CNS,99.7 µM
same,GI50,SNB-75 CNS,4.9 µM
same,TGI,SNB-75 CNS,24.8 µM
same,GI50,SR leukemia,4.68 µM
same,TGI,SR leukemia,48 µM
same,GI50,SW-620 colon,22.6 µM
same,TGI,SW-620 colon,87.3 µM
same,GI50,T-47D breast,8.55 µM
same,TGI,T-47D breast,65 µM
same,GI50,TK-10 renal,6.3 µM
same,TGI,TK-10 renal,35.9 µM
same,GI50,U251 CNS,9.08 µM
same,TGI,U251 CNS,60.5 µM
same,GI50,UACC-257 melanoma,0.129 µM
same,TGI,UACC-257 melanoma,1.18 µM
same,GI50,UACC-62 melanoma,0.0639 µM
same,TGI,UACC-62 melanoma,2.14 µM
same,GI50,UO-31 renal,6.4 µM
same,TGI,UO-31 renal,66.3 µM
